Key:
[1] = Solubility of the complex in water; assay type: physicochemical
Protocol: (§1) The complex, dihydrogen bis(N-[N′-(2,6-diisopropylphenyl)carbamoylmethyl]iminodiaceto)manganese(II) hydrate, was thus isolated as the hydrated species. The solubility of the complex in water was determined to be approximately 0.1% w/v. The relaxation parameters T1 and T2 of a 10-^−3M solution of the complex in a 90 MHz NMR experiment were determined to be 0.107 sec. and 0.007 sec. respectively. The T1 and T2 values for water are 2.51 sec. and 0.150 sec., respectively.
(§2) The relaxation parameters T1 and T2 of a 10^−3M solution of the complex in a 90 MHz NMR experiment were determined to be 126 milliseconds and 1.5 milliseconds, respectively.

Swiss CF-1 mice = assay: Acute intravenous toxicity determination; assay type: in vivo; conditions: for LD50: acute, intravenous, Trihydrate
Protocol: Dihydrogen Bis(N-[N′-(2,6-dimethylphenyl)carbamoylmethyl]iminidiaceto)manganese(II) trihydrate was dissolved in 0.9% sodium chloride Inj. USP as a 1.25% solution.
Male and female Swiss CF-1 mice with a body weight range of 17.4 to 24.2 grams were used. The mice were housed according to standard procedures and individually marked with picric acid.
The dose schedule was as follows:
Measured single doses were injected into the lateral tail vein at a rate of 1 ml/min. The animals were observed immediately after dosing and during the 7-day observation period for pharmacotoxic reactions. Recording of terminal body weights and general necropsy-of the thoracic and abdominal organs was performed after 7 days.

rabbits = assay: Tissue T1 and T2 relaxation times 45 min after intravenous injection (time course); assay type: in vivo; conditions: for T1 relaxation time / T2 relaxation time: 45 min after 0.03 mmol/kg i.v., 10 mHz RADX
Protocol: (§3) All experiments employing the complex dihydrogen bis(N-[N′-(2,6-dimethylphenyl)carbamoylmethyl]iminodiaceto)manganese (II) trihydrate were conducted following intravenous administration to rabbits. A 10 mM solution of the complex was used in these studies. Rabbits were anesthetized with ketamine/xylazine prior to treatment. The results given were obtained with a 10 mHz RADX proton spin analyzer.
A second study was performed in two rabbits killed 45 min after intravenous injection of 0.03 mmol of the complex/Kg to examine the time course of T1 and T2relaxation enhancement.

rabbit [2] = assay: Tissue T1 and T2 relaxation times 5 min, 15 min or 1 week after 0.05 mmol/kg intravenous dose; assay type: in vivo; conditions: 0.05 mmol/kg i.v.
Protocol: as §3
In another study, employing an intravenous dose of 0.05 mmol of the complex/Kg, one rabbit was killed at time points of 5 min, 15 min or 1 week after dosing. In animals killed at 5 and 15 min, heart and liver T1 and T2 relaxation times were determined with 5 and 10 mHz instruments.

rabbit [3] = assay: Bile proton T1 and T2 relaxation times over 105 min after intravenous injection; assay type: in vivo; conditions: 0.03 mmol/kg i.v., one rabbit
Protocol: as §3
In a third study, one rabbit received 0.03 mmol of the complex/kg and bile samples were collected at 5-20 min intervals over a 105 min time course and proton T1 and T2 relaxation times were determined. Control bile T1 relaxation time was 944 msec. within 1 min of injection, bile T1 was reduced to 60 msec. Over the 105 minute time course, bile T1 returned to a value of 91 msec, less than 10% of the preinjection control value. The preinjection bile T2 relaxation time was 16 msec.

[4] = Relaxation parameters T1 and T2 of a 10^−3M solution in a 90 MHz NMR experiment; assay type: physicochemical; conditions: 10^−3M solution
Protocol: as §1, §2

SMILES: Cc1cccc(C)c1NC(=O)CN(CC(=O)[O-])CC(=O)O.Cc1cccc(C)c1NC(=O)CN(CC(=O)[O-])CC(=O)O.O.O.O.[Mn+2] [Example 2]
- solubility of the complex in water [1]: 2.5 % w/v
- solubility of the complex in water (molar) [1]: approximately 3.6×10^−3 M
- Body weight change (Swiss CF-1 mice; 0.360 mmol/kg i.v., after 7 days): +1.75 g
- Mortalities/number tested (Swiss CF-1 mice; 0.360 mmol/kg i.v., day 1 after dosing): 0/4
- Mortalities/number tested (Swiss CF-1 mice; 0.360 mmol/kg i.v., day 2 after dosing): 0/4
- Mortalities/number tested (Swiss CF-1 mice; 0.360 mmol/kg i.v., day 3 after dosing): 0/4
- Mortalities/number tested (Swiss CF-1 mice; 0.360 mmol/kg i.v., day 4 after dosing): 0/4
- Mortalities/number tested (Swiss CF-1 mice; 0.360 mmol/kg i.v., day 5 after dosing): 0/4
- Mortalities/number tested (Swiss CF-1 mice; 0.360 mmol/kg i.v., day 6 after dosing): 0/4
- Mortalities/number tested (Swiss CF-1 mice; 0.360 mmol/kg i.v., day 7 after dosing): 0/4
- Mortalities/number tested (Swiss CF-1 mice; 0.360 mmol/kg i.v., immediate): 0/4
- Body weight change (Swiss CF-1 mice; 0.540 mmol/kg i.v., after 7 days): +2.0 g
- Mortalities/number tested (Swiss CF-1 mice; 0.540 mmol/kg i.v., day 1 after dosing): 2/4
- Mortalities/number tested (Swiss CF-1 mice; 0.540 mmol/kg i.v., day 2 after dosing): 2/4
- Mortalities/number tested (Swiss CF-1 mice; 0.540 mmol/kg i.v., day 3 after dosing): 2/4
- Mortalities/number tested (Swiss CF-1 mice; 0.540 mmol/kg i.v., day 4 after dosing): 2/4
- Mortalities/number tested (Swiss CF-1 mice; 0.540 mmol/kg i.v., day 5 after dosing): 2/4
- Mortalities/number tested (Swiss CF-1 mice; 0.540 mmol/kg i.v., day 6 after dosing): 2/4
- Mortalities/number tested (Swiss CF-1 mice; 0.540 mmol/kg i.v., day 7 after dosing): 2/4
- Mortalities/number tested (Swiss CF-1 mice; 0.540 mmol/kg i.v., immediate): 2/4
- Body weight change (Swiss CF-1 mice; 0.630 mmol/kg i.v., after 7 days): +1.6 g
- Mortalities/number tested (Swiss CF-1 mice; 0.630 mmol/kg i.v., day 1 after dosing): 3/4
- Mortalities/number tested (Swiss CF-1 mice; 0.630 mmol/kg i.v., day 2 after dosing): 3/4
- Mortalities/number tested (Swiss CF-1 mice; 0.630 mmol/kg i.v., day 3 after dosing): 3/4
- Mortalities/number tested (Swiss CF-1 mice; 0.630 mmol/kg i.v., day 4 after dosing): 3/4
- Mortalities/number tested (Swiss CF-1 mice; 0.630 mmol/kg i.v., day 5 after dosing): 3/4
- Mortalities/number tested (Swiss CF-1 mice; 0.630 mmol/kg i.v., day 6 after dosing): 3/4
- Mortalities/number tested (Swiss CF-1 mice; 0.630 mmol/kg i.v., day 7 after dosing): 3/4
- Mortalities/number tested (Swiss CF-1 mice; 0.630 mmol/kg i.v., immediate): 3/4
- pharmacotoxic reactions immediately after injection (Swiss CF-1 mice; 0.360-0.630 mmol/kg i.v., mice): Mild to severe convulsions occurred in all the animals immediately after injections
- pharmacotoxic reactions of surviving animals (Swiss CF-1 mice; 0.360-0.630 mmol/kg i.v., mice): mild to severe depression which was resolved within one hour after dosing
- weight gains (Swiss CF-1 mice; 7-day observation): normal
- LD50 (Swiss CF-1 mice; mouse, listed as dihydrogen bis(N-[N′-(2,6-dimethylphenyl)carbamoylmethyl]-iminodiaceto)manganese): ~0.5 mmol/kg
- LD50 (Swiss CF-1 mice; mouse, listed as dihydrogen bis(N-[N′-(2,6-dimethylphenyl)carbamoylmethyl]iminodiaceto)-manganese): approximately 0.540 mmol/kg
- necropsy findings (Swiss CF-1 mice; after 7 days): did not reveal any abnormalities
- diagnostic safety ratio (Swiss CF-1 mice; mouse i.v. LD50 vs ED50 for hepatic T1 enhancement): approximately 50
- intravenous toxicity profile (Swiss CF-1 mice; mouse, in vivo, iv): favorable intravenous toxicity profile
- tissue T1 relaxation times at 45 min compared with 15 min (rabbits; 0.03 mmol/kg i.v.): decreased to the same extent as noted at 15 min
- T1 relaxation time (rabbits; Bladder): 367 ms
- T2 relaxation time (rabbits; Bladder): 72 ms
- T1 relaxation time (rabbits; Fat): 137 ms
- T2 relaxation time (rabbits; Fat): 125 ms
- T1 relaxation time (rabbits; Heart): 265 ms
- T2 relaxation time (rabbits; Heart): 57 ms
- T1 relaxation time (rabbits; Large Intestine): 154 ms
- T2 relaxation time (rabbits; Large Intestine): 47 ms
- T1 relaxation time (rabbits; Liver): 37 ms
- T2 relaxation time (rabbits; Liver): 24 ms
- T1 relaxation time (rabbits; Lung): 438 ms
- T2 relaxation time (rabbits; Lung): 89 ms
- T1 relaxation time (rabbits; Pancreas): 117 ms
- T2 relaxation time (rabbits; Pancreas): 75 ms
- T1 relaxation time (rabbits; Renal cortex): 143 ms
- T2 relaxation time (rabbits; Renal cortex): 57 ms
- T1 relaxation time (rabbits; Renal medulla): 244 ms
- T2 relaxation time (rabbits; Renal medulla): 91 ms
- T1 relaxation time (rabbits; Skeletal muscle): 315 ms
- T2 relaxation time (rabbits; Skeletal muscle): 41 ms
- T1 relaxation time (rabbits; Small Intestine): 129 ms
- T2 relaxation time (rabbits; Small Intestine): 48 ms
- T1 relaxation time (rabbits; Spleen): 271 ms
- T2 relaxation time (rabbits; Spleen): 71 ms
- T1 relaxation time (rabbits; Stomach): 159 ms
- T2 relaxation time (rabbits; Stomach): 47 ms
- heart and liver T1 values (rabbit [2]; killed at 5 and 15 min, 5 and 10 mHz instruments): reduced tissue T1 values at both frequencies
- tissue T1 and T2 relaxation times (rabbit [2]; rabbit killed at 1 week): returned to control values
- bile T1 relative to preinjection control value (rabbit [3]; at 105 min): less than 10%
- bile T2 relaxation time (rabbit [3]; gradual increase following injection): 44 ms
- bile T1 relaxation time (rabbit [3]; over the 105 minute time course (end value)): 91 ms
- bile T1 relaxation time (rabbit [3]; within 1 min of injection): 60 ms
- relaxation parameter T1 [4]: 126 milliseconds
- relaxation parameter T2 [4]: 1.5 milliseconds

From patent publication US6797255B1, “Methods and compositions for enhancing magnetic resonance imaging” (Mallinckrodt Inc., priority 1985, dated 2004)
